Reference: ChEMBL document CHEMBL6153036, “Genome-informed Discovery of Monchicamides A-K: Cyanobactins from the Microcoleaceae Cyanobacterium LEGE 16532” (J Nat Prod, 2025)
Calls of active or inactive are those of the source. Where a SMILES comes first, the peptide text is derived from it. [ ]: non-standard residue; d: D form. The star is where a group is joined. ξ: configuration not given here. ξIle = CC[C@H](C)C(N)C(=O)O; Prenyl = CC(C)=CC*

Key:
Acanthamoeba castellanii = assay: Antiamoebic activity against Acanthamoeba castellanii assessed as cell viability at 10 uM incubated for 24 hrs by Alamar blue staining based assay; format: functional, organism-based
Candida albicans = assay: Antifungal activity against Candida albicans ATCC 10231 assessed as fungal growth inhibition at 1 mg/mL preincubated for 30 mins at room temperature followed by incubation at 37 degreeC for 24 hrs by agar disc-diffusion method; format: functional, organism-based; conditions: time 24.5 hrs
Acanthamoeba polyphaga = assay: Antiamoebic activity against Acanthamoeba polyphaga assessed as cell viability at 10 uM incubated for 24 hrs by Alamar blue staining based assay; format: functional, organism-based
Staphylococcus aureus = assay: Antibacterial activity against Staphylococcus aureus ATCC 29213 assessed as bacterial growth inhibition at 1 mg/mL preincubated for 30 mins at room temperature followed by incubation at 37 degreeC for 24 hrs by agar disc-diffusion method; format: functional, organism-based; conditions: time 24.5 hrs
HCT-116 = assay: Cytotoxicity against human HCT-116 cells assessed as cell viability at 10 ug/mL incubated for 48 hrs by MTT assay; format: functional, cell-based; conditions: dose 10.0 µg/ml
SH-SY5Y = assay: Cytotoxicity against human SH-SY5Y cells assessed as cell viability at 10 ug/mL incubated for 48 hrs by MTT assay; format: functional, cell-based; conditions: dose 10.0 µg/ml
Dictyostelium discoideum = assay: Antiamoebic activity against Dictyostelium discoideum assessed as cell viability at 10 uM incubated for 24 hrs by Alamar blue staining based assay; format: functional, organism-based
Bacillus subtilis = assay: Antibacterial activity against Bacillus subtilis ATCC 6633 assessed as bacterial growth inhibition at 1 mg/mL preincubated for 30 mins at room temperature followed by incubation at 37 degreeC for 24 hrs by agar disc-diffusion method; format: functional, organism-based; conditions: time 24.5 hrs
HepG2 = assay: Cytotoxicity against human HepG2 cells assessed as cell viability at 10 ug/mL incubated for 48 hrs by MTT assay; format: functional, cell-based; conditions: dose 10.0 µg/ml
Salmonella typhimurium = assay: Antibacterial activity against Salmonella typhimurium ATCC 25241 assessed as bacterial growth inhibition at 1 mg/mL preincubated for 30 mins at room temperature followed by incubation at 37 degreeC for 24 hrs by agar disc-diffusion method; format: functional, organism-based; conditions: Salmonella enterica subsp. enterica serovar Typhimurium, time 24.5 hrs
Escherichia coli = assay: Antibacterial activity against Escherichia coli ATCC 25922 assessed as bacterial growth inhibition at 1 mg/mL preincubated for 30 mins at room temperature followed by incubation at 37 degreeC for 24 hrs by agar disc-diffusion method; format: functional, organism-based; conditions: time 24.5 hrs

Measured: Activity

CC[C@H](C)C1NC(=O)[C@@H]2CCCN2C(=O)[C@H](Cc2ccc(OCC=C(C)C)cc2)NC(=O)[C@@H]2CCCN2C(=O)[C@H](C(C)C)NC(=O)CNC(=O)[C@H](C(C)C)NC(=O)CNC1=O (stereo partly specified) (cyclo(GVGVPY(Prenyl)P[ξIle]))
inactive: all assays above
